Results on 1 molecule are retold here after patent US4937184A, “N-demethylefrotomycin” (Pfizer Inc., priority 1989, dated 1990).

Values after ≈ are worked out from the molar mass of the structure shown.

The term MIC denotes the smallest concentration in the dilution series that meets the test's criterion for growth inhibition. A low value points to inhibition by little substance.

The subject of one experiment is E. coli. The experiment can be described thus: In vitro MIC in brain heart infusion (BHI) broth, E. coli. Type of experiment: cell-based. The conditions noted are these: Escherichia coli. The source says:
(§1) Generally twelve 2 fold dilutions of the test compound are employed, with initial concentration of the test drug being in the range of 50 to 200 mcg./ml. The susceptibility (MIC) of the test organism is accepted as the lowest concentration of compound capable of producing complete inhibition of growth as judged by the naked eye.

The next experiment has as its system Hemoph. pleur. The experiment can be described thus: In vitro MIC in brain heart infusion (BHI) broth, Hemoph. pleur. The conditions noted are these: 24 h. In kind it is cell-based.
Source text: as §1

The next experiment has as its system Past. haem. 010. The experiment can be described thus: Mouse protection test, i.p. infection with multilethal amounts of Past. haem. 010. Type of experiment: in vivo, mice. The note with it: subcutaneous, infected i.p. with multilethal amounts of Past. haem. 010. How it is done: Additionally, compound (I) is tested in vivo by the well-known mouse protection test, or by a microbiological (bioassay) determination of serum levels in a variety of mammals (e.g., mouse, rat, dog). For example, at subcutaneous doses of either 100 mg./kg. or 25 mg./kg., there was survival of 5/5 mice infected i.p. with multilethal amounts of Past. haem. 010.

In a further experiment the test system is Acto. pyog. Nature of the experiment: In vitro MIC in brain heart infusion (BHI) broth, Acto. pyog. Type of experiment: cell-based. The note with it: 24 h.
Source text: as §1

A further experiment relates to Past. haem. The experiment can be described thus: In vitro MIC in brain heart infusion (BHI) broth, Past. haem. In kind it is cell-based.
Source text: as §1

The test system of another experiment is Past. mult. Nature of the experiment: In vitro MIC in brain heart infusion (BHI) broth, Past. mult. Type of experiment: cell-based. The note with it: 48 h.
Source text: as §1

The test system of a further experiment is Lact. acidoph. The experiment can be described thus: In vitro MIC in brain heart infusion (BHI) broth, Lact. acidoph. In kind it is cell-based. The conditions noted are these: 24 h, strain 001, replicate Day 1.
Source text: as §1

With `CC=CC=CC1OC(O)(C(CC)C(=O)NCC=CC=C(C)C(OC)C(C)C2OC(C=CC=CC=C(C)C(=O)c3c(O)cc[nH]c3=O)C(O)C2O)C(O)C(OC2OC(C)C(OC3OC(C)C(OC)C(O)C3OC)C(OC)C2O)C1(C)C` (stereo not shown) [N-Demethylefrotomycin, N-demethylefrotomycin], the MIC against E. coli (24 h, strain 124, replicate Day 1) was greater than 100 µg/mL; in the experiment on E. coli (48 h, strain 124, replicate Day 2) it was greater than 100 µg/mL; in the experiment on Hemoph. pleur. (strain 004, replicate Day 1), 12.5 µg/mL (≈ 11 µM); in the experiment with Hemoph. pleur. (strain 005, replicate Day 1), 12.5 µg/mL (≈ 11 µM); with Acto. pyog. (strain 002, replicate Day 1), 12.5 µg/mL (≈ 11 µM); in the experiment on Acto. pyog. (strain 008, replicate Day 1), 12.5 µg/mL (≈ 11 µM). Besides, the MIC with Past. haem. (24 h) is 12.5 µg/mL (≈ 11 µM); in the experiment on Past. haem. (48 h) it was 12.5 µg/mL (≈ 11 µM); against Past. haem. (strain 046, replicate Day 2, BHI broth) it was 12.5 µg/mL (≈ 11 µM); in the experiment with Past. mult, 12.5 µg/mL (≈ 11 µM); in the experiment on Lact. acidoph. it was 12.5 µg/mL (≈ 11 µM). Further, the survival in the experiment with Past. haem. 010 (25 mg./kg.) and in the experiment on Past. haem. 010 (100 mg./kg.) was 5/5 in each case.
